Where two headings read alike, the source gives them in different places.
How the values were obtained:
physchem = settings: 25 °C, thermodynamic from solid
[1] = 0.1N HCL, 1.0% DMSO, 24-hour incubation at ambient temperature, maximum theoretical compound concentration 100 μM
[2] = 1×PBS buffer (pH 7.4), 1.0% DMSO, 24-hour incubation at ambient temperature, maximum theoretical compound concentration 100 μM

| Compound | pH 2 solubility (pH 2) | pH 7 solubility (pH 7.4) | solubility (physchem; fassif) | solubility (physchem; fessif) | pH 2 solubility [1] | pH 7 solubility [2] |
| --- | --- | --- | --- | --- | --- | --- |
| CN(C(=O)N(c1nn(CC(F)(F)F)c2c(-c3ccc(C#CC(C)(C)S(C)(=O)=O)nc3[C@H](Cc3cc(F)cc(F)c3)NC(=O)Cn3nc(C(F)(F)F)c4c3C(F)(F)[C@@H]3C[C@H]43)ccc(Cl)c12)S(C)(=O)=O)c1ccccc1OP(=O)(O)O [Compound 54, 2-(3-(4-chloro-7-(2-((S)-1-(2-((3bS,4aR)-5,5-difluoro-3-(trifluoromethyl)-3b,4,4a,5-tetrahydro-1H-cyclopropa[3,4]cyclopenta[1,2-c]pyrazol-1-yl)acetamido)-2-(3,5-difluorophenyl)ethyl)-6-(3-methyl-3-(methylsulfonyl)but-1-yn-1-yl)pyridin-3-yl)-1-(2,2,2-trifluoroethyl)-1H-indazol-3-yl)-1-methyl-3-(methylsulfonyl)ureido)phenyl dihydrogen phosphate] | 1/63 μM | 1/63 μM | 1090 µg/mL | 561 µg/mL |  |  |
| CN[C@H](C(=O)N(c1nn(CC(F)(F)F)c2c(-c3ccc(C#CC(C)(C)S(C)(=O)=O)nc3[C@H](Cc3cc(F)cc(F)c3)NC(=O)Cn3nc(C(F)(F)F)c4c3C(F)(F)[C@@H]3C[C@H]43)ccc(Cl)c12)S(C)(=O)=O)C(C)C [Compound 21, N-(4-chloro-7-(2-((S)-1-(2-((3bS,4aR)-5,5-difluoro-3-(trifluoromethyl)-3b,4,4a,5-tetrahydro-1H-cyclopropa[3,4]cyclopenta[1,2-c]pyrazol-1-yl)acetamido)-2-(3,5-difluorophenyl)ethyl)-6-(3-methyl-3-(methylsulfonyl)but-1-yn-1-yl)pyridin-3-yl)-1-(2,2,2-trifluoroethyl)-1H-indazol-3-yl)-3-methyl-2-(methylamino)-N-(methylsulfonyl)butanamide] |  |  |  |  | 72 μM | 2 μM |
| CC(C)[C@H](N)C(=O)OCCCCC(=O)N(c1nn(CC(F)(F)F)c2c(-c3ccc(C#CC(C)(C)S(C)(=O)=O)nc3[C@H](Cc3cc(F)cc(F)c3)NC(=O)Cn3nc(C(F)(F)F)c4c3C(F)(F)[C@@H]3C[C@H]43)ccc(Cl)c12)S(C)(=O)=O [Compound 14] |  |  |  |  | 7 μM | 1 μM |
| CC(C)(C#Cc1ccc(-c2ccc(Cl)c3c(N(C(=O)CN(CC(=O)O)CC(=O)O)S(C)(=O)=O)nn(CC(F)(F)F)c23)c([C@H](Cc2cc(F)cc(F)c2)NC(=O)Cn2nc(C(F)(F)F)c3c2C(F)(F)[C@@H]2C[C@H]32)n1)S(C)(=O)=O [Compound 23] |  |  |  |  | 14 μM | 22 μM |
| CC(C)(CC(=O)N(c1nn(CC(F)(F)F)c2c(-c3ccc(C#CC(C)(C)S(C)(=O)=O)nc3[C@H](Cc3cc(F)cc(F)c3)NC(=O)Cn3nc(C(F)(F)F)c4c3C(F)(F)[C@@H]3C[C@H]43)ccc(Cl)c12)S(C)(=O)=O)c1c(CC(=O)O)cc(C(N)=O)cc1OP(=O)(O)O [Compound 68] | <1/65 μM | <1/65 μM |  |  |  |  |
| CC(C)[C@H](N)C(=O)N(c1nn(CC(F)(F)F)c2c(-c3ccc(C#CC(C)(C)S(C)(=O)=O)nc3[C@H](Cc3cc(F)cc(F)c3)NC(=O)Cn3nc(C(F)(F)F)c4c3C(F)(F)[C@@H]3C[C@H]43)ccc(Cl)c12)S(C)(=O)=O [Compound 20, (S)-2-amino-N-(4-chloro-7-(2-((S)-1-(2-((3bS,4aR)-5,5-difluoro-3-(trifluoromethyl)-3b,4,4a,5-tetrahydro-1H-cyclopropa[3,4]cyclopenta[1,2-c]pyrazol-1-yl)acetamido)-2-(3,5-difluorophenyl)ethyl)-6-(3-methyl-3-(methylsulfonyl)but-1-yn-1-yl)pyridin-3-yl)-1-(2,2,2-trifluoroethyl)-1H-indazol-3-yl)-3-methyl-N-(methylsulfonyl)butanamide] |  |  |  |  | 69 μM | 2 μM |
| CC(C)(CC(=O)N(c1nn(CC(F)(F)F)c2c(-c3ccc(C#CC(C)(C)S(C)(=O)=O)nc3[C@H](Cc3cc(F)cc(F)c3)NC(=O)Cn3nc(C(F)(F)F)c4c3C(F)(F)[C@@H]3C[C@H]43)ccc(Cl)c12)S(C)(=O)=O)c1c(CC(=O)N[C@@H](CC(=O)O)C(=O)O)cc(C(N)=O)cc1OP(=O)(O)O [Compound 69, (2-(5-carbamoyl-2-(4-(N-(4-chloro-7-(2-((S)-1-(2-((3bS,4aR)-5,5-difluoro-3-(trifluoromethyl)-3b,4,4a,5-tetrahydro-1H-cyclopropa[3,4]cyclopenta[1,2-c]pyrazol-1-yl)acetamido)-2-(3,5-difluorophenyl)ethyl)-6-(3-methyl-3-(methylsulfonyl)but-1-yn-1-yl)pyridin-3-yl)-1-(2,2,2-trifluoroethyl)-1H-indazol-3-yl)methylsulfonamido)-2-methyl-4-oxobutan-2-yl)-3-(phosphonooxy)phenyl)acetyl)-L-aspartic acid] | 3/75 μM | 3/75 μM |  |  |  |  |
| CC(C)(CC(=O)N(c1nn(CC(F)(F)F)c2c(-c3ccc(C#CC(C)(C)S(C)(=O)=O)nc3[C@H](Cc3cc(F)cc(F)c3)NC(=O)Cn3nc(C(F)(F)F)c4c3C(F)(F)[C@@H]3C[C@H]43)ccc(Cl)c12)S(C)(=O)=O)c1c(CC(=O)O)cccc1OP(=O)(O)O [Compound 70, 2-(2-(4-(N-(4-chloro-7-(2-((S)-1-(2-((3bS,4aR)-5,5-difluoro (trifluoromethyl)-3b,4,4a,5-tetrahydro-1H-cyclopropa[3,4]cyclopenta[1,2-c]pyrazolyl)acetamido)-2-(3,5-difluorophenyl)ethyl)-6-(3-methyl-3-(methylsulfonyl)but-1-ynyl)pyridin-3-yl)-1-(2,2,2-trifluoroethyl)-1H-indazol-3-yl)methylsulfonamido)-2-methyloxobutan-2-yl)-3-(phosphonooxy)phenyl)acetic acid] | 7/94 μM | 7/94 μM |  |  |  |  |
| CC(C)(C#Cc1ccc(-c2ccc(Cl)c3c(N(C(=O)CCCC(=O)O)S(C)(=O)=O)nn(CC(F)(F)F)c23)c([C@H](Cc2cc(F)cc(F)c2)NC(=O)Cn2nc(C(F)(F)F)c3c2C(F)(F)[C@@H]2C[C@H]32)n1)S(C)(=O)=O [Compound 25, 5-(N-(4-chloro-7-(2-((S)-1-(2-((3bS,4aR)-5,5-difluoro-3-(trifluoromethyl)-3b,4,4a,5-tetrahydro-1H-cyclopropa[3,4]cyclopenta[1,2-c]pyrazol-1-yl)acetamido)-2-(3,5-difluorophenyl)ethyl)-6-(3-methyl-3-(methylsulfonyl)but-1-yn-1-yl)pyridin-3-yl)-1-(2,2,2-trifluoroethyl)-1H-indazol-3-yl)methylsulfonamido)-5-oxopentanoic acid] |  |  |  |  | 1/1 μM | 1/1 μM |
| COC(=O)CCC(=O)N(c1nn(CC(F)(F)F)c2c(-c3ccc(C#CC(C)(C)S(C)(=O)=O)nc3[C@H](Cc3cc(F)cc(F)c3)NC(=O)Cn3nc(C(F)(F)F)c4c3C(F)(F)[C@@H]3C[C@H]43)ccc(Cl)c12)S(C)(=O)=O [Compound 10, methyl 4-(N-(4-chloro-7-(2-((S)-1-(2-((3bS,4aR)-5,5-difluoro-3-(trifluoromethyl)-3b,4,4a,5-tetrahydro-1H-cyclopropa[3,4]cyclopenta[1,2-c]pyrazol-1-yl)acetamido)-2-(3,5-difluorophenyl)ethyl)-6-(3-methyl-3-(methylsulfonyl)but-1-yn-1-yl)pyridin-3-yl)-1-(2,2,2-trifluoroethyl)-1H-indazol-3-yl)methylsulfonamido)-4-oxobutanoate] |  |  |  |  | 1/1 μM | 1/1 μM |
| CC(C)(CC(=O)O)C(=O)N(c1nn(CC(F)(F)F)c2c(-c3ccc(C#CC(C)(C)S(C)(=O)=O)nc3[C@H](Cc3cc(F)cc(F)c3)NC(=O)Cn3nc(C(F)(F)F)c4c3C(F)(F)[C@@H]3C[C@H]43)ccc(Cl)c12)S(C)(=O)=O [Compound 15, 4-(N-(4-chloro-7-(2-((S)-1-(2-((3bS,4aR)-5,5-difluoro-3-(trifluoromethyl)-3b,4,4a,5-tetrahydro-1H-cyclopropa[3,4]cyclopenta[1,2-c]pyrazol-1-yl)acetamido)-2-(3,5-difluorophenyl)ethyl)-6-(3-methyl-3-(methylsulfonyl)but-1-yn-1-yl)pyridin-3-yl)-1-(2,2,2-trifluoroethyl)-1H-indazol-3-yl)methylsulfonamido)-3,3-dimethyl-4-oxobutanoic acid] |  |  |  |  | 1/1 μM | 1/1 μM |
| CC(C)(C#Cc1ccc(-c2ccc(Cl)c3c(N(C(=O)C[N+](C)(C)C)S(C)(=O)=O)nn(CC(F)(F)F)c23)c([C@H](Cc2cc(F)cc(F)c2)NC(=O)Cn2nc(C(F)(F)F)c3c2C(F)(F)[C@@H]2C[C@H]32)n1)S(C)(=O)=O [Compound 5, 2-(N-(4-chloro-7-(2-((S)-1-(2-((3bS,4aR)-5,5-difluoro (trifluoromethyl)-3b,4,4a,5-tetrahydro-1H-cyclopropa[3,4]cyclopenta[1,2-c]pyrazolyl)acetamido)-2-(3,5-difluorophenyl)ethyl)-6-(3-methyl-3-(methylsulfonyl)but-1-ynyl)pyridin-3-yl)-1-(2,2,2-trifluoroethyl)-1H-indazol-3-yl)methylsulfonamido)-N,N,N-trimethyl-2-oxoethan-1-aminium] |  |  |  |  | 45 μM | 6 μM |
| CC(C)(C#Cc1ccc(-c2ccc(Cl)c3c(N(C(=O)[C@@H](N)CCCCN)S(C)(=O)=O)nn(CC(F)(F)F)c23)c([C@H](Cc2cc(F)cc(F)c2)NC(=O)Cn2nc(C(F)(F)F)c3c2C(F)(F)[C@@H]2C[C@H]32)n1)S(C)(=O)=O [Compound 11, (S)-2,6-diamino-N-(4-chloro-7-(2-((S)-1-(2-((3bS,4aR)-5,5-difluoro-3-(trifluoromethyl)-3b,4,4a,5-tetrahydro-1H-cyclopropa[3,4]cyclopenta[1,2-c]pyrazol-1-yl)acetamido)-2-(3,5-difluorophenyl)ethyl)-6-(3-methyl-3-(methylsulfonyl)but-1-yn-1-yl)pyridin-3-yl)-1-(2,2,2-trifluoroethyl)-1H-indazol-3-yl)-N-(methylsulfonyl)hexanamide] |  |  |  |  | 100 μM | 43 μM |
